Results taken from PubChem BioAssay (NCI).
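48-hour exposure; five concentrations; linearly interpolated endpoints. GI50 is the concentration that inhibits growth by half. TGI: total growth inhibition.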 Where a SMILES comes first, the peptide text is derived from it. The star is where a group is joined. Palmitoyl = CCCCCCCCCCCCCCCC(=O)*

Legend:
Test in all cases: NCI anticancer screen, dose series, 48 h
[1] = system: A498 renal
[2] = system: DU-145 prostate
[3] = system: HCT-15 colon
[4] = system: LOX IMVI melanoma
[5] = system: NCI-H23 lung
[6] = system: NCI-H460 lung
[7] = system: OVCAR-5 ovarian
[8] = system: UACC-62 melanoma
[9] = system: SNB-75 CNS
[10] = system: UO-31 renal

Question: What does the source list for `Cc1c(-c2ccccc2)[nH]c2cc(Cl)ccc2c1=O`?
Answer: TGI [1]: > 100 µM; TGI [2]: > 100 µM; TGI [3]: > 100 µM; TGI [4]: > 100 µM; TGI [5]: > 100 µM; TGI [6]: > 100 µM; TGI [7]: > 100 µM; TGI [8]: > 100 µM

Question: With `COc1cc(C(C)O)c[n+](Cc2ccccc2)c1` (centres undefined) as the compound, how does the TGI [1] read?
Answer: > 100 µM

Question: What about the TGI [3] of the same compound?
Answer: > 100 µM

Question: And the TGI [4]?
Answer: > 100 µM

Question: What about the TGI [5] of the same compound?
Answer: > 100 µM

Question: And the TGI [6]?
Answer: > 100 µM

Question: And the TGI [7]?
Answer: > 100 µM

Question: What about the TGI [9] of the same compound?
Answer: > 100 µM

Question: And the TGI [8]?
Answer: > 100 µM

Question: And the TGI [10]?
Answer: > 100 µM

Question: What does the source list for `CON(C)c1nc(N(C)OC)nc(N(C)OC)n1`?
Answer: TGI [1]: > 10 µM; TGI [2]: > 10 µM; TGI [3]: > 10 µM; TGI [4]: > 10 µM; TGI [5]: > 10 µM; TGI [6]: > 10 µM; TGI [7]: > 10 µM; TGI [9]: > 10 µM; TGI [8]: > 10 µM; TGI [10]: > 10 µM

Question: What does the source list for `CC(N)Cc1ccc(Cl)c(Cl)c1` (centres undefined)?
Answer: TGI [1]: > 90.6 µM; TGI [3]: 84.9 µM; TGI [4]: > 68.5 µM; TGI [5]: > 100 µM; TGI [6]: 97.1 µM; TGI [7]: > 82.5 µM; TGI [9]: > 92.3 µM; TGI [8]: 50.2 µM; TGI [10]: 66.3 µM

Question: What does the source list for `COC(=O)c1c(C)n([O-])c2cc(Cl)c(Cl)cc2[n+]1=O`?
Answer: TGI [1]: 40.2 µM; TGI [2]: 38.4 µM; TGI [3]: 37.9 µM; TGI [4]: 27.8 µM; TGI [5]: > 100 µM; TGI [6]: 29.2 µM; TGI [7]: > 100 µM; TGI [8]: 40.3 µM; TGI [10]: 46.7 µM

Question: For `CCN1CCC(O)(/C=C/c2ccccc2C)C(C(=O)/C=C/c2ccccc2C)C1` (centres undefined), which TGI [1] is on record?
Answer: 4.55 µM

Question: What about the TGI [2] of the same compound?
Answer: 4.05 µM

Question: What about the TGI [3] of the same compound?
Answer: 3.8 µM

Question: And the TGI [4]?
Answer: 3.38 µM

Question: And the TGI [5]?
Answer: 4.11 µM

Question: And the TGI [6]?
Answer: 3.18 µM

Question: And the TGI [7]?
Answer: 3.99 µM

Question: What about the TGI [9] of the same compound?
Answer: 16.6 µM

Question: And the TGI [8]?
Answer: 10.7 µM

Question: And the TGI [10]?
Answer: 3 µM

Question: For `CN1C(c2ccccc2)CC(=O)C(N)C1c1ccccc1` (centres undefined), which TGI [1] is on record?
Answer: > 100 µM

Question: What about the TGI [3] of the same compound?
Answer: > 63.1 µM

Question: And the TGI [4]?
Answer: 32.1 µM

Question: And the TGI [5]?
Answer: > 100 µM

Question: And the TGI [6]?
Answer: 55.6 µM

Question: What about the TGI [7] of the same compound?
Answer: > 70.8 µM

Question: And the TGI [9]?
Answer: > 100 µM

Question: And the TGI [8]?
Answer: 81.2 µM

Question: What about the TGI [10] of the same compound?
Answer: > 96.3 µM

Question: Which TGI [1] does the source give for `O=C(N/N=C/c1ccc([N+](=O)[O-])cc1)Nc1ccc(C(=O)O)cc1` here?
Answer: 65.1 µM

Question: What about the TGI [2] of the same compound?
Answer: > 100 µM

Question: What about the TGI [3] of the same compound?
Answer: > 100 µM

Question: What about the TGI [4] of the same compound?
Answer: > 100 µM

Question: And the TGI [5]?
Answer: > 100 µM

Question: What about the TGI [6] of the same compound?
Answer: > 100 µM

Question: What about the TGI [7] of the same compound?
Answer: > 100 µM

Question: What about the TGI [9] of the same compound?
Answer: > 100 µM

Question: What about the TGI [8] of the same compound?
Answer: > 100 µM

Question: And the TGI [10]?
Answer: > 100 µM

Question: With `c1cnc2c(c1)ccc1cccnc12` as the compound, how does the TGI [1] read?
Answer: > 100 µM

Question: And the TGI [2]?
Answer: > 100 µM

Question: And the TGI [3]?
Answer: > 100 µM

Question: What about the TGI [4] of the same compound?
Answer: > 100 µM

Question: And the TGI [5]?
Answer: > 100 µM

Question: What about the TGI [6] of the same compound?
Answer: 7.98 µM

Question: What about the TGI [7] of the same compound?
Answer: > 100 µM

Question: What about the TGI [9] of the same compound?
Answer: > 39.7 µM

Question: And the TGI [8]?
Answer: > 100 µM

Question: And the TGI [10]?
Answer: > 49.5 µM

Question: Which results are given for `COC(=O)/C=C(\CC(=O)OC)n1nnnc1[C@@H]1C[C@H](COC(c2ccccc2)(c2ccccc2)c2ccccc2)[C@H]2OC(C)(C)O[C@H]21`?
Answer: TGI [1]: > 100 µM; TGI [2]: > 100 µM; TGI [4]: > 100 µM; TGI [7]: > 100 µM; TGI [9]: > 100 µM; TGI [10]: > 100 µM

Question: With `CCCCCCCCCCCCCCCC(=O)N1CCCC1C(=O)NCC(=O)NC(Cc1ccccc1)C(=O)NC(C)C(=O)NC(CO)C(=O)NC(Cc1ccc(O)cc1)C(=O)NC(CCCCN)C(=O)NC(CC(C)C)C(=O)NC(CCCN=C(N)N)C(=O)N1CCCC1C(=O)NCC(N)=O` (centres undefined) (Palmitoyl-PGFASYKLRPG-NH2; configuration not given here) as the compound, how does the GI50 [1] read?
Answer: 37.4 µM

Question: What about the TGI [1] of the same compound?
Answer: > 100 µM

Question: What about the GI50 [2] of the same compound?
Answer: 15.7 µM

Question: What about the TGI [2] of the same compound?
Answer: 43.6 µM

Question: And the GI50 [5]?
Answer: 23.6 µM

Question: And the TGI [5]?
Answer: 58.9 µM

Question: What about the GI50 [6] of the same compound?
Answer: 23.5 µM

Question: And the TGI [6]?
Answer: 61.4 µM

Question: And the GI50 [7]?
Answer: 15.4 µM

Question: What about the TGI [7] of the same compound?
Answer: 38.6 µM

Question: And the GI50 [9]?
Answer: 22.9 µM

Question: What about the TGI [9] of the same compound?
Answer: 43.5 µM

Question: What about the GI50 [10] of the same compound?
Answer: 21.9 µM

Question: And the TGI [10]?
Answer: 52.1 µM

Question: With `Cc1ccc(-c2nc(N/N=C/C=C/c3ccccc3)c3ccccc3n2)cc1` as the compound, how does the TGI [2] read?
Answer: 96.4 µM

Question: And the TGI [3]?
Answer: > 100 µM

Question: What about the TGI [4] of the same compound?
Answer: > 100 µM

Question: What about the TGI [5] of the same compound?
Answer: > 100 µM

Question: What about the TGI [6] of the same compound?
Answer: > 100 µM

Question: And the TGI [7]?
Answer: 48.1 µM

Question: And the TGI [9]?
Answer: > 100 µM

Question: What about the TGI [8] of the same compound?
Answer: 48.1 µM

Question: And the TGI [10]?
Answer: > 100 µM

Question: How did the TGI [1] turn out when `C=C(C)C1Cc2c(c3ccccc3n(C)c2=O)O1` (centres undefined) was run?
Answer: > 100 µM

Question: What about the TGI [3] of the same compound?
Answer: > 100 µM

Question: What about the TGI [4] of the same compound?
Answer: > 100 µM

Question: And the TGI [5]?
Answer: > 100 µM

Question: What about the TGI [6] of the same compound?
Answer: > 100 µM

Question: And the TGI [9]?
Answer: > 100 µM

Question: And the TGI [8]?
Answer: > 100 µM

Question: And the TGI [10]?
Answer: > 100 µM

Question: What does the source list for `c1ccc(-c2nc(N3CCNCC3)c3oc(-c4ccccc4)nc3n2)cc1`?
Answer: GI50 [1]: 1.62 µM; TGI [1]: 3.07 µM; GI50 [2]: 1.88 µM; TGI [2]: 3.33 µM; GI50 [3]: 1.8 µM; TGI [3]: 3.51 µM; GI50 [5]: 1.76 µM; TGI [5]: 3.39 µM; GI50 [6]: 1.75 µM; TGI [6]: 3.38 µM; GI50 [7]: 1.69 µM; TGI [7]: 3.08 µM; GI50 [9]: 1.27 µM; TGI [9]: 2.59 µM; GI50 [8]: 1.72 µM; TGI [8]: 3.11 µM; GI50 [10]: 1.49 µM; TGI [10]: 2.85 µM
